Measured values as given in patent US20240150333A1, “TAF1 INHIBITORS” (H. LEE MOFFITT CANCER CENTER AND RESEARCH INSTITUTE, INC., priority 2020, published 2024).

Key:
Assay in all cases: Bromoscan selectivity profiling (DiscoveRx)
Settings in all cases: at 20,000 nM
[1] = target: T1, ATAD2A (Homo sapiens, UniProt Q6PL18); assay type: binding
T1 construct: 32 bromodomains (by DiscoveRx); purchased DiscoveRx (BromoScan service)
Experimental: (§1) qPCR-based BRD binding assay. Another method for the determination of dissociation constants of BRD-ligand complexes is offered by DiscoveRx Corp. The assay is based on competition between test compound and immobilized high-affinity ligand for binding to the KAc site of BRDs. The amount of TAF1 remaining on an immobilized high-affinity ligand in the presence of ligand is measured using a quantitative real-time polymerase chain reaction (qPCR) method that detects the associated DNA label tagged to the BRD.
(§2) Inhibitor selectivity assays To assess target selectivity, compounds with highest biochemical and cellular activities can be profiled against panels of BRDs and kinases using the services of DiscoveRx and/or Reaction biology, as we have done previously.

[2] = target: T2, ATAD2B (Homo sapiens, UniProt Q9ULI0); assay type: binding
T2 construct: 32 bromodomains (by DiscoveRx); purchased DiscoveRx (BromoScan service)
Experimental: as §1, §2

[3] = target: T3, BAZ2A (Homo sapiens, UniProt Q9UIF9); assay type: binding
T3 construct: 32 bromodomains (by DiscoveRx); purchased DiscoveRx (BromoScan service)
Experimental: as §1, §2

[4] = target: T4, BAZ2B (Homo sapiens, UniProt Q9UIF8); assay type: binding
T4 construct: 32 bromodomains (by DiscoveRx); purchased DiscoveRx (BromoScan service)
Experimental: as §1, §2

[5] = target: T5, BRD2(1) (Homo sapiens, UniProt P25440); assay type: binding
T5 construct: 32 bromodomains (by DiscoveRx); purchased DiscoveRx (BromoScan service)
Experimental: as §1, §2

[6] = target: T6, BRD2(2) (Homo sapiens, UniProt P25440); assay type: binding
T6 construct: 32 bromodomains (by DiscoveRx); purchased DiscoveRx (BromoScan service)
Experimental: as §1, §2

[7] = target: T7, BRD3(1) (Homo sapiens, UniProt Q15059); assay type: binding
T7 construct: 32 bromodomains (by DiscoveRx); purchased DiscoveRx (BromoScan service)
Experimental: as §1, §2

[8] = target: T8, BRD3(2) (Homo sapiens, UniProt Q15059); assay type: binding
T8 construct: 32 bromodomains (by DiscoveRx); purchased DiscoveRx (BromoScan service)
Experimental: as §1, §2

[9] = target: T9, BRD4(1) (Homo sapiens, UniProt O60885); assay type: binding
T9 construct: 32 bromodomains (by DiscoveRx); purchased DiscoveRx (BromoScan service)
Experimental: as §1, §2

[10] = target: T10, BRD4(2) (Homo sapiens, UniProt O60885); assay type: binding
T10 construct: purchased DiscoveRx
Experimental: as §1, §2

[11] = target: T11, BRD7 (Homo sapiens, UniProt Q9NPI1); assay type: binding
T11 construct: purchased DiscoveRx
Experimental: as §1, §2

[12] = target: T12, BRD9 (Homo sapiens, UniProt Q9H8M2); assay type: binding
T12 construct: purchased DiscoveRx
Experimental: as §1, §2

[13] = target: T13, BRDT(1) (Homo sapiens, UniProt Q58F21); assay type: binding
T13 construct: BRDT(1); purchased DiscoveRx
Experimental: as §1, §2

[14] = target: T14, BRDT(2) (Homo sapiens, UniProt Q58F21); assay type: binding
T14 construct: BRDT(2); purchased DiscoveRx
Experimental: as §1, §2

[15] = target: T15, BRPF1 (Homo sapiens, UniProt P55201); assay type: binding
T15 construct: purchased DiscoveRx
Experimental: as §1, §2

[16] = target: T16, BRPF2/BRD1 (Homo sapiens, UniProt O95696); assay type: binding
T16 construct: 32 bromodomains (by DiscoveRx); purchased DiscoveRx (BromoScan service)
Experimental: as §1, §2

[17] = target: T17, BRPF3 (Homo sapiens, UniProt Q9ULD4); assay type: binding
T17 construct: purchased DiscoveRx
Experimental: as §1, §2

[18] = target: T18, CECR2 (Homo sapiens, UniProt Q9BXF3); assay type: binding
T18 construct: purchased DiscoveRx
Experimental: as §1, §2

[19] = target: T19, CREBBP (Homo sapiens, UniProt Q92793); assay type: binding
T19 construct: purchased DiscoveRx
Experimental: as §1, §2

[20] = target: T20, EP300 (Homo sapiens, UniProt Q09472); assay type: binding
T20 construct: purchased DiscoveRx
Experimental: as §1, §2

[21] = target: T21, FALZ (Homo sapiens, UniProt Q12830); assay type: binding
T21 construct: purchased DiscoveRx
Experimental: as §1, §2

[22] = target: T22, GCN5L(2) (Homo sapiens, UniProt Q92830); assay type: binding
T22 construct: purchased DiscoveRx
Experimental: as §1, §2

[23] = target: T23, PBRM1(2) (Homo sapiens, UniProt Q86U86); assay type: binding
T23 construct: PBRM1(2); purchased DiscoveRx
Experimental: as §1, §2

[24] = target: T24, PBRM1(5) (Homo sapiens, UniProt Q86U86); assay type: binding
T24 construct: PBRM1(5); purchased DiscoveRx
Experimental: as §1, §2

[25] = target: T25, PCAF (Homo sapiens, UniProt Q92831); assay type: binding
T25 construct: purchased DiscoveRx
Experimental: as §1, §2

[26] = target: T26, SMARCA2 (Homo sapiens, UniProt P51531); assay type: binding
T26 construct: purchased DiscoveRx
Experimental: as §1, §2

[27] = target: T27, SMARCA4 (Homo sapiens, UniProt P51532); assay type: binding
T27 construct: purchased DiscoveRx
Experimental: as §1, §2

[28] = target: T28, TAF1(2) (Homo sapiens, UniProt P21675); assay type: binding
T28 construct: purchased DiscoveRx
Experimental: as §1, §2

[29] = target: T29, TAF1L(2) (Homo sapiens, UniProt Q8IZX4); assay type: binding
T29 construct: purchased DiscoveRx
Experimental: as §1, §2

[30] = target: T30, TRIM24(PHD, Bromo.) (Homo sapiens, UniProt O15164); assay type: binding
T30 construct: TRIM24(PHD, Bromo.); purchased DiscoveRx
Experimental: as §1, §2

[31] = target: T31, WDR9(2) (Homo sapiens, UniProt Q9NSI6); assay type: binding
T31 construct: purchased DiscoveRx
Experimental: as §1, §2

[32] = test system: TRIM33(PHD, Bromo.); assay type: binding, human
Experimental: as §1, §2

T27 sequence (P51532 1453-1564 limits assumed): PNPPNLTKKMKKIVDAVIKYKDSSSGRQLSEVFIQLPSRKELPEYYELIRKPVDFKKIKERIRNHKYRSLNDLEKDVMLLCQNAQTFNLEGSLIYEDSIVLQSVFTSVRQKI
T18 sequence (Q9BXF3 434-538 limits assumed): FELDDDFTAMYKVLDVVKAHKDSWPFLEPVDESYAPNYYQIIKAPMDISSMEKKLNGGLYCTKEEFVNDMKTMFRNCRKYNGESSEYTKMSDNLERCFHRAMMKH
T1 sequence (Q6PL18 980-1092 limits assumed): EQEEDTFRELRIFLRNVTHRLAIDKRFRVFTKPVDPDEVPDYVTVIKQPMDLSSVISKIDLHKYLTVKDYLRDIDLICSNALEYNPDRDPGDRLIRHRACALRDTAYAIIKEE
T24 sequence (Q86U86 653-763 limits assumed): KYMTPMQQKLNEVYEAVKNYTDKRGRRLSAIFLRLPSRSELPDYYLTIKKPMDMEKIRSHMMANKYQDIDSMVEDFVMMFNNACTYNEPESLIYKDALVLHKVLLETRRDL
T2 sequence (Q9ULI0 951-1066 limits assumed): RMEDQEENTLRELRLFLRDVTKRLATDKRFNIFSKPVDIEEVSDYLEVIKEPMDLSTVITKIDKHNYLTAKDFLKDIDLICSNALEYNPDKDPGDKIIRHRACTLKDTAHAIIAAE
T26 sequence (P51531 1378-1506 limits assumed): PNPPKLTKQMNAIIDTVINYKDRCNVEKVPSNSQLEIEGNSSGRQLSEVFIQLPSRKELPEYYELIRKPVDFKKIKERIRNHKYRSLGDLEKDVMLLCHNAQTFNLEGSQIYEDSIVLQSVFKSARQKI
T22 sequence (Q92830 728-832 limits assumed): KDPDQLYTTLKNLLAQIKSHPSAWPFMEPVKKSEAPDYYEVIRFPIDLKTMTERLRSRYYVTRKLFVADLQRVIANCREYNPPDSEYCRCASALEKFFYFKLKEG
T30 sequence (O15164 824-1006 limits assumed): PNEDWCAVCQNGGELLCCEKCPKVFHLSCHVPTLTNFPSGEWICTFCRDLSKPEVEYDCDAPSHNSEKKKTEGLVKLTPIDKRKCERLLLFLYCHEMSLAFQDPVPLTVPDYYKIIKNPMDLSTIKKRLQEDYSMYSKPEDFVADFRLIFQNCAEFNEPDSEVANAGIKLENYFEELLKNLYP
T12 sequence (Q9H8M2 136-240 limits assumed): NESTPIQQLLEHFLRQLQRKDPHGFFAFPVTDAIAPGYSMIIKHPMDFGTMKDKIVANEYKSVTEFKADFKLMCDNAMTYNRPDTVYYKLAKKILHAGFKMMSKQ
T7 sequence (Q15059 34-140 limits assumed): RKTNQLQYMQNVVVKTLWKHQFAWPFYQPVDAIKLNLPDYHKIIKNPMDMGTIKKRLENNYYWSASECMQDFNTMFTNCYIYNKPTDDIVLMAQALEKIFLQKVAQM
T20 sequence (Q09472 1049-1156 limits assumed): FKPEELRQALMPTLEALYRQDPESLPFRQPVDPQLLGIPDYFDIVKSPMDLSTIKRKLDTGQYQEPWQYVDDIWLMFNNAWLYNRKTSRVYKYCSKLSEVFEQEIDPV
T23 sequence (Q86U86 177-287 limits assumed): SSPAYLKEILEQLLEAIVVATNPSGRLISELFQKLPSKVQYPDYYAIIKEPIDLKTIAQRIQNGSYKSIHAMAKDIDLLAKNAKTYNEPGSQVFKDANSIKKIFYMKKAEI
T17 sequence (Q9ULD4 589-693 limits assumed): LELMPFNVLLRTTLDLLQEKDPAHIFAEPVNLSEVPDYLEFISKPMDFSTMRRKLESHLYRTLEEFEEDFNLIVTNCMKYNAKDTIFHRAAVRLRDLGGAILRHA
T8 sequence (Q15059 306-415 limits assumed): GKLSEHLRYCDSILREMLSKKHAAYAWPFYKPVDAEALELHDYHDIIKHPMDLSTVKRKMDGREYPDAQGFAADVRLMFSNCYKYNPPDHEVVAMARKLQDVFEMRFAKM
T28 sequence (P21675 1519-1628 limits assumed): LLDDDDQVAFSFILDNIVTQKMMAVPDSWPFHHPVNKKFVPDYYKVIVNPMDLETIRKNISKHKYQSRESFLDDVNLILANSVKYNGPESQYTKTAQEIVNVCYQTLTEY
T4 sequence (Q9UIF8 2060-2164 limits assumed): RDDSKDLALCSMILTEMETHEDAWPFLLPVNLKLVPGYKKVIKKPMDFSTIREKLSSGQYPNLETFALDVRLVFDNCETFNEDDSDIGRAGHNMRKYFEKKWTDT
T16 sequence (O95696 562-666 limits assumed): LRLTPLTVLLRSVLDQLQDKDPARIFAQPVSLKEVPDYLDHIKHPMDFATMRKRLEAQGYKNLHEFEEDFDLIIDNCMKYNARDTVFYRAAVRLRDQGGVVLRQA
T15 sequence (P55201 628-732 limits assumed): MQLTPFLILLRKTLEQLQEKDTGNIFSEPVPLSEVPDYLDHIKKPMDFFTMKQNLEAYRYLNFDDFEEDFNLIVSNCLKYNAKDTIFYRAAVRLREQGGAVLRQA
T5 sequence (P25440 74-180 limits assumed): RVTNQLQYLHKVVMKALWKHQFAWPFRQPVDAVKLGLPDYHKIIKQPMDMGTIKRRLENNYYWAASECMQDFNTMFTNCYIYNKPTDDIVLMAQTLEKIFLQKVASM
T19 sequence (Q92793 1085-1192 limits assumed): as the sequence (Q09472 1049-1156 limits assumed) above, with S47N, I73V, Y93F, S98A counted along it
T11 sequence (Q9NPI1 131-235 limits assumed): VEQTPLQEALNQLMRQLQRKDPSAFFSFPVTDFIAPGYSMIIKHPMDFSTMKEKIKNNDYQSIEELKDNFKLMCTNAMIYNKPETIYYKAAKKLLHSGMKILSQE
T31 sequence (Q9NSI6 1313-1418 limits assumed): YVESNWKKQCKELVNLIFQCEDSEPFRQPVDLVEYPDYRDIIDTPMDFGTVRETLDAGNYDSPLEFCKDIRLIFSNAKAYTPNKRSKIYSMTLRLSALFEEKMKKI
T6 sequence (P25440 344-453 limits assumed): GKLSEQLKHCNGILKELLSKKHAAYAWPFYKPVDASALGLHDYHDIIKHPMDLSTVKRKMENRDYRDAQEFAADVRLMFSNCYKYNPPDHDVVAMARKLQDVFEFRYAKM
T25 sequence (Q92831 723-827 limits assumed): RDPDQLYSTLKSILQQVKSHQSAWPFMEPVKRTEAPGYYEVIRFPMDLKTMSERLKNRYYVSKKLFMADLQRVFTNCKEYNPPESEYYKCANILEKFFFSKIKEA
T29 sequence (Q8IZX4 1517-1626 limits assumed): as the sequence (P21675 1519-1628 limits assumed) above, with V46M, M51V, V102I, L107I counted along it
T3 sequence (Q9UIF9 1793-1897 limits assumed): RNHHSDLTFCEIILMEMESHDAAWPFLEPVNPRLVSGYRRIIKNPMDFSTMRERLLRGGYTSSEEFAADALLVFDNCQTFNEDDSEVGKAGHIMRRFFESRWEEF

C[C@@H]1COCCN1c1cc(C2([S@](C)(=N)=O)CC2)nc(-c2cc[nH]c3nccc2-3)n1 [AZD6738]
inhibition at 20 µM [1]: 0% | inhibition at 20 µM [2]: 0% | inhibition at 20 µM [3]: 0% | inhibition at 20 µM [4]: 0% | inhibition at 20 µM [5]: 46% | inhibition at 20 µM [6]: 84% | inhibition at 20 µM [7]: 60% | inhibition at 20 µM [8]: 82% | inhibition at 20 µM [9]: 50% | inhibition at 20 µM [10]: 69% | inhibition at 20 µM [11]: 14% | inhibition at 20 µM [12]: 13% | inhibition at 20 µM [13]: 56% | inhibition at 20 µM [14]: 38% | inhibition at 20 µM [15]: 11% | inhibition at 20 µM [16]: 6% | inhibition at 20 µM [17]: 20% | inhibition at 20 µM [18]: 92.3% | inhibition at 20 µM [19]: 20% | inhibition at 20 µM [20]: 36% | inhibition at 20 µM [21]: 11% | inhibition at 20 µM [22]: 27% | inhibition at 20 µM [23]: 5% | inhibition at 20 µM [24]: 0% | inhibition at 20 µM [25]: 18% | inhibition at 20 µM [26]: 15% | inhibition at 20 µM [27]: 7% | inhibition at 20 µM [28]: 99.8% | inhibition at 20 µM [29]: 98% | inhibition at 20 µM [30]: 6% | inhibition at 20 µM [31]: 84% | % Inhibition TRIM33(PHD, Bromo.) [32]: 0%
